Results reported in patent US5597823A, “Tricyclic substituted hexahydrobenz [e]isoindole alpha-1 adrenergic antagonists” (priority 1995, dated 1997).
Structures can show the parent of a compound that is named as a salt.

Molecular target: T1, α-1A adrenoceptor (dog prostate) (Canis lupus, UniProt A0A8I3NK63)
T1 sequence (A0A8I3NK63 1-466): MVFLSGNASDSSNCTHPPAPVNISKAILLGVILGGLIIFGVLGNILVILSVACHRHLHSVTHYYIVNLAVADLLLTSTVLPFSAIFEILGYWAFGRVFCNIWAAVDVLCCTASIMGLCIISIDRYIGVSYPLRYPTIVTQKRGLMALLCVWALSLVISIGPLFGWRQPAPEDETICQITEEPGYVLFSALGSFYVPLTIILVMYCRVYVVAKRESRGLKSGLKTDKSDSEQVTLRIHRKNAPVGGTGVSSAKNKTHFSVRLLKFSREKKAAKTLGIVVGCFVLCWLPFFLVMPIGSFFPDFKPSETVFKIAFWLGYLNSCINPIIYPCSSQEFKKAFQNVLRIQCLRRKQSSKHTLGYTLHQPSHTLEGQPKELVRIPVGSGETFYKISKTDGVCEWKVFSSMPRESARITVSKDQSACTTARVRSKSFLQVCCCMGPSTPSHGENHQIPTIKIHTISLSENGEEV
Test: Functional antagonism: phenylephrine (PE)-induced contraction of canine prostate strips
Format: cell-based
Details: Table 2b; vs phenylephrine; Schild plot
From the text: Functional assays indicative of pharmacologically defined α-1 adrenoceptors were used to further characterize compounds. Inhibition of phenylephrine (PE)-induced contraction of canine prostate smooth muscle can be correlated with α-1A adrenoceptor activation. […] For each of these models, agonist dose response curves were repeated against increasing concentrations of test agent to derive a Schild plot [log ([…]) against log (molarity of test agent)] to determine the pA2.
Canine prostate strips were used in vitro as previously described (Hieble, J. P., Boyce, A. J. and Caine, M., Fed. Proc., 45:2609-2614 (1986)), to determine antagonist potencies against phenylephrine-induced contractions.

SMILES | pA2 Dog Prostate [α-1A]
COc1cccc2c1CC[C@H]1CN(CCn3c(=O)[nH]c4c(sc5ccc(C(N)=O)cc54)c3=O)C[C@@H]21 [Example 46, 3-[2-((3aR,9bR)-cis-6-Methoxy-2,3,3a.4,5,9b-hexahydro-[1H]-benz[e]isoindol-1-yl)ethyl]-[1]-8-carboxamido-benzothieno[3,2-d]pyrimidine-2,4(1H,3H)-dionehydrochloride] | 9.61
COc1cccc2c1CC[C@H]1CN(CCn3c(=O)[nH]c4c(sc5cc([N+](=O)[O-])ccc54)c3=O)C[C@@H]21 [Example 47, 3-[2-((3aR,9bR)-cis-6-Methoxy-2,3,3a.4,5,9b-hexahydro-[1H]-benz[e]isoindol-1-yl)ethyl]-[1]-7-nitro-benzothieno[3,2-d]pyrimidine-2,4(1H,3H)-dione hydrochloride] | 8.7
COc1cccc2c1CC[C@H]1CN(CCn3c(=O)[nH]c4c(sc5ccc([N+](=O)[O-])cc54)c3=O)C[C@@H]21 [Example 48, 3-[2-((3aR,9bR)-cis-6-Methoxy-2,3,3a,4,5,9b-hexahydro-[1H]-benz[e]isoindol-1-yl)ethyl]-[1]-8-nitro-benzothieno[3,2-d]pyrimidine-2,4(1H,3H)-dione hydrochloride] | 8.32
COc1cccc2c1CC[C@H]1CN(CCn3c(=O)[nH]c4c(sc5ccc(NC(C)=O)cc54)c3=O)C[C@@H]21 [Example 49, 3-[2-((3aR,9bR)-cis-6-Methoxy-2,3,3a,4,5,9b-hexahydro-[1H]-benz[e]isoindol-1-yl)ethyl]-[1]-8-acetamido-benzothieno[3,2-d]pyrimidine-2,4(1H,3H)-dione hydrochloride] | 7.84
COc1cccc2c1CC[C@H]1CN(CCn3c(=O)[nH]c4c(sc5ccc(N(C)C)cc54)c3=O)C[C@@H]21 [Example 50, 3-[2-((3aR,9bR)-cis-6-Methoxy-2,3,3a,4,5,9b-hexahydro-[1H]-benz[e]isoindol-1-yl)ethyl]-[1]-8-N,N-dimethylamino-benzothieno[3,2-d]pyrimidine-2,4(1H,3H)-dione hydrochloride] | 7.24
COc1cccc2c1CC[C@H]1CN(CCn3c(=O)[nH]c4cc5[nH]cnc5cc4c3=O)C[C@@H]21 [Example 53, 7-[2-((3aR,9bR)cis-6-Methoxy-2,3,3a,4,5,9b-hexahydro,[1H]-benz[e]isoindol-1-yl)ethyl]-imidazo[4,5-g]quinazoline-6,8(1H,5H)-dione hydrochloride] | 9.25
COc1cccc2c1CC[C@H]1CN(CCn3c(=O)[nH]c4c(sc5cccc(C#N)c54)c3=O)C[C@@H]21 [Example 54, 3-2-((3aR,9bR)-cis-6-Methoxy-2,3,3a,4,5,9b-hexahydro-[1H]-benz[e]isoindol-1-yl)ethyl]-[1]-9-cyano-benzothieno[3,2-d]pyrimidine-2,4(1H,3H)-dione hydrochloride] | 8.74
COc1cccc2c1CC[C@H]1CN(CCn3c(=O)[nH]c4c(sc5c(C#N)cccc54)c3=O)C[C@@H]21 [Example 55, 3-[2-((3aR,9bR)-cis-6-Methoxy-2,3,3a,4,5,9b-hexahydro-[1H]-benz[e]isoindol-1-yl)ethyl]-[1]-6-cyano-benzothieno[3,2-d]pyrimidine-2,4(1H,3H)-dione hydrochloride] | 8.11
COc1cccc2c1CC[C@H]1CN(CCn3c(=O)[nH]c4c(sc5c(Cl)cccc54)c3=O)C[C@@H]21 [Example 56, 3-[2-((3aR,9bR)-cis-6-Methoxy-2,3,3a,4,5,9b-hexahydro-[1H]-benz[e]isoindol-1-yl)ethyl]-[1]-6-chloro-benzothieno[3,2-d]pyrimidine-2,4(1H,3H)-dione hydrochloride] | 7.11
COc1cccc2c1CC[C@H]1CN(CCn3c(=O)[nH]c4c(sc5cc(Cl)ccc54)c3=O)C[C@@H]21 [Example 57, 3-[2-((3aR,9bR)-cis-6-Methoxy-2,3,3a,4,5,9b-hexahydro-[1H]-benz[e]isoindol-1-yl)ethyl]-[1]-7-chloro-benzothieno[3,2-d]pyrimidine-2,4(1H,3H)-dione hydrochloride] | 7.43
COc1cccc2c1CC[C@H]1CN(CCn3c(=O)c4sc5cccnc5c4n(C)c3=O)C[C@@H]21 [Example 61, dihydrochloride] | 9.5
COc1cccc2c1CC[C@H]1CN(CCn3c(=O)[nH]c4c(sc5c(Cl)ccnc54)c3=O)C[C@@H]21 [Example 63, 3-[2-((3aR,9bR)-cis-6-Methoxy-2,3,3a,4,5,9b-hexahydro-[1H]-benz[e]isoindol-1-yl)ethyl]-6-chloro-pyrido[2',3':4,5]thieno[3,2-d]pyrimidine-2,4(1H,3H)-dione dihydrochloride] | 8.6
COc1cccc2c1CC[C@H]1CN(CCn3c(=O)[nH]c4c(sc5c(OC)ccnc54)c3=O)C[C@@H]21 [Example 65, dihydrochloride] | 8.75
COc1cccc2c1CC[C@H]1CN(CCn3cnc4c([nH]c5ccccc54)c3=O)C[C@@H]21 [Example 66, 3-2-((3aR,9bR)-cis-6-Methoxy-2,3,3a,4,5,9b-hexahydro-[1H]-benz[e]isoindol-1-yl)ethyl]-1H-pyrimido[5,4-b]indole-4(1H,3H)-one hydrochloride] | 9.71
COc1cccc2c1CC[C@H]1CN(CCn3c(=O)[nH]c4c(sc5ccc(Cl)cc54)c3=O)C[C@@H]21 [Example 67, hydrochloride] | 8.98
COc1cc2sc3c(=O)n(CCN4C[C@@H]5CCc6c(OC)cccc6[C@@H]5C4)c(=O)[nH]c3c2cc1OC [Example 68, 3-[2-((3aR,9bR)-cis-6-Methoxy-2,3,3a,4,5,9b-hexahydro-[1H]-benz[e]isoindol-1-yl)ethyl]-[1]-7,8-dimethoxy-benzothieno[3,2-d]pyrimidine-2,4(1H,3H)-dionehydrochloride] | 7.87
COc1cccc2c1CC[C@H]1CN(CCN3CNc4c(sc5ncccc45)C3=O)C[C@@H]21 [Example 70, dihydrochloride] | 8.57
COc1cccc2c1CC[C@H]1CN(CCn3cnc4c(sc5nccnc54)c3=O)C[C@@H]21 [Example 71, 3-[2-(cis-(3.aR,9bR)-6-Methoxy-2,3 .,3a,4,5,9b-hexahydro-[1H]-benz[e]isoindol-1-yl)ethyl]-pyrazino[2',3':4,5]thieno[3,2-d]pyrimidine-4(1H,3H)-one hydrochloride] | 9.21
COc1cccc2c1CC[C@H]1CN(CCn3c(=O)[nH]c4c(sc5cccc(Cl)c54)c3=O)C[C@@H]21 [Example 72, 3-[2-((3aR,9bR)-cis-6-Methoxy-2,3,3a,4,5,9b-hexahydro-[1H]-benz[e]isoindol-1-yl)ethyl]-[1]-9-chloro-benzothieno[3,2-d]pyrimidine-2,4(1H,3H)-dione hydrochloride] | 8.38

Further lines, results first:

pA2 Dog Prostate [α-1A] | SMILES
8.42 | COc1cccc2c1CC[C@H]1CN(CCn3c(=O)[nH]c4c(sc5cccc(OC)c54)c3=O)C[C@@H]21 [Example 73, 3-[2-((3aR,9bR)-cis-6-Methoxy-2,3,3a,4,5,9b-hexahydro-[1H]-benz[e]isoindol-1-yl)ethyl]-[1]-9-methoxy-benzothieno[3,2-d]pyrimidine-2,4(1H,3H)-dione hydrochloride]
8.7 | COc1cccc2c1CC[C@H]1CN(CCn3c(=O)[nH]c4c(sc5ccc(C)cc54)c3=O)C[C@@H]21 [Example 74, 3-[2,((3aR,9bR)-cis-6-Methoxy-2,3,3a,4,5,9b-hexahydro-[1H]-benz[e]isoindol-1-yl)ethyl]-[1]-8-methyl-benzothieno[3,2-d]pyrimidine-2,4(1H,3H)-dione hydrochloride]
9.09 | COc1cccc2c1CC[C@H]1CN(CCn3c(=O)[nH]c4c(oc5cccnc54)c3=O)C[C@@H]21 [Example 77, 3-[2-((3aR,9bR)-cis-6-Methoxy-2,3,3a,4,5,9b-hexahydro-[1H]-benz[e]yl)ethyl]-pyrido[2',3':4,5]furo[3,2-d]pyrimidine-2,4(1H3 H)-dione hydrochloride]
7.8 | COc1cccc2c1CC[C@@H]1CN(CCn3c(=O)[nH]c4c(sc5cccnc54)c3=O)C[C@H]21 [Example 78, dihydrochloride]
8.77 | COc1cccc2c1[C@@H]1CN(CCCCn3c(=O)[nH]c4c(sc5cccnc54)c3=O)C[C@@H]1CC2 [Example 79, dihydrochloride]
8.08 | COc1cccc2c1[C@@H]1CN(CCCCn3c(=O)[nH]c4c(sc5nccnc54)c3=O)C[C@@H]1CC2 [Example 80, hydrochloride]
9.09 | COc1cccc2c1CC[C@H]1CN(CCn3c(=O)[nH]c4c(ccc5ncccc54)c3=O)C[C@@H]21 [Example 82, 3-[2-((3aR,9bR)cis-6-Methoxy-2,3,3a,4,5,9b-hexahydro-[1H]-benz[e]isoindol-1-yl)ethyl]-pyrido[2,3-h]quinazoline-2,4(1H,3H)-dione hydrochloride]
8.43 | COc1cccc2c1CC[C@H]1CN(CCn3c(=O)[nH]c4c(ccc5cccnc54)c3=O)C[C@@H]21 [Example 83, hydrochloride]
8.99 | COc1cccc2c1CC[C@H]1CN(CCn3c(=O)[nH]c4c(ccc5cnccc54)c3=O)C[C@@H]21 [Example 84, hydrochloride]
